# According to patent US9714266B2, “Estra-1,3,5(10),16-tetraene-3-carboxamides for inhibition of 17β-hydroxysteroid dehydrogenase (AKR1C3)” (priority 2013, dated 2017):
# pIC50: −log10 of the molar value. Several values for one entry are separate records, joined by “and”; a condition that tells them apart may be missing. Equal values may be shown once.
# Target: AKR1C3 (Homo sapiens (Human), UniProt P42330)
# Assay: AKR1C3 enzyme assay (coumberone reduction, fluorescence)
# Type: biochemical
# Conditions: recombinant human AKR1C3, coumberone 0.3 μM, NADPH 10 μM; read-out: AKR1C3 enzyme inhibition IC50
# Experimental: The AKR1C3-inhibitory action of the substances of this invention was measured in the AKR1C3 assay described in the paragraphs which follow. Essentially, the enzyme activity is measured by quantifying the coumberol formed from coumberone ([…]., and […]. AM. CHEM. SOC. 130, 14123-14128 (2008) […]., Bauman, D. R., Penning, T. M., and […]., Proc. Natl. Acad. Sci. USA 103, 13304-13309 (2006)). In this assay, the increase in the highly fluorescent coumberol can be determined by NADPH (nicotinamide adenine dinucleotide phosphate)-dependent reduction of the nonfluorescent coumberone by AKR1C3. […] NM_003739). This was expressed as the GST (glutathione S-transferase) fusion protein in E. coli and purified by means of glutathione-Sepharose affinity chromatography. The GST was removed by thrombin digestion with subsequent size exclusion chromatography (Dufort, I., Rheault, P., Huang, X F., Soucy, P., and Luu-The, V., Endocrinology 140, 568-574 (1999)). […] The concentration of the AKR1C3 was matched to the respective activity of the enzyme preparation and set such that the assay worked within the linear range. Typical concentrations were in the region of 1 nM. The reaction was stopped by adding 5 μl of a stop solution consisting of the inhibitor EM-1404 [F. Labrie et al. U.S. Pat. […] Subsequently, the fluorescence of coumberol was measured at 520 nm (excitation at 380 nm) with a suitable measuring instrument (Pherastar from BMG Labtechnologies).
# Chain of AKR1C3 (P42330 whole entry): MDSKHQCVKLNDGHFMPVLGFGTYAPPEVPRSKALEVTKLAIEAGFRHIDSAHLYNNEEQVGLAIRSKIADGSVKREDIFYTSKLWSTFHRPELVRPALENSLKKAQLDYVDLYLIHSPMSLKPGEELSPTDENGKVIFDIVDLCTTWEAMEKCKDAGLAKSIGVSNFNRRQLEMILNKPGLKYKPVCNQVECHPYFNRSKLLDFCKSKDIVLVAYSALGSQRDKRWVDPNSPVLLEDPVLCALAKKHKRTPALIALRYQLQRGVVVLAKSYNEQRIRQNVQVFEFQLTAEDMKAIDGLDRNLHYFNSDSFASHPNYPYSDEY
row,SMILES,pIC50
1,"COc1cncc(C2=CC[C@H]3[C@@H]4CCc5cc(C(N)=O)ccc5[C@H]4CC[C@]23C)c1 [Example 2, 17-(5-methoxypyridin-3-yl)oestra-1,3,5(10),16-tetraene-3-carboxamide]",6.72 and 7.00
2,"C[C@]12CC[C@@H]3c4ccc(C(N)=O)cc4CC[C@H]3[C@@H]1CC=C2c1cncc(C(F)(F)F)c1 [Example 3, 17-[5-(trifluoromethyl)pyridin-3-yl]oestra-1,3,5(10),16-tetraene-3-carboxamide]",7.34 and 7.60
3,"C[C@]12CC[C@@H]3c4ccc(C(N)=O)cc4CC[C@H]3[C@@H]1CC=C2c1cncnc1 [Example 5, 17-(pyrimidin-5-yl)oestra-1,3,5(10),16-tetraene-3-carboxamide]",6.50 and 6.70 and 6.84
4,"C[C@]12CC[C@@H]3c4ccc(C(N)=O)cc4CC[C@H]3[C@@H]1CC=C2c1cncc(C#N)c1 [Example 6, 17-(5-cyanopyridin-3-yl)oestra-1,3,5(10),16-tetraene-3-carboxamide]",6.46
5,"C[C@]12C[C@H](F)[C@@H]3c4ccc(C(=O)NCCS(N)(=O)=O)cc4CC[C@H]3[C@@H]1CC=C2c1cncc(F)c1 [Example 8, 11β-fluoro-17-(5-fluoropyridin-3-yl)-N-(2-sulphamoylethyl)oestra-1,3,5(10),16-tetraene-3-carboxamide]",7.14
6,"C[C@]12CC[C@@H]3c4ccc(C(=O)N[C@H]5CCC[C@H]5O)cc4CC[C@H]3[C@@H]1CC=C2c1cncc(F)c1 [Example 9, 17-(5-fluoropyridin-3-yl)-N-[(1S,2R)-2-hydroxycyclopentyl]oestra-1,3,5(10),16-tetraene-3-carboxamide]",7.21 and 7.09
7,"CC(C)(CO)CNC(=O)c1ccc2c(c1)CC[C@@H]1[C@@H]2CC[C@]2(C)C(c3cncc(F)c3)=CC[C@@H]12 [Example 10, 17-(5-fluoropyridin-3-yl)-N-[2-(hydroxymethyl)-2-methylpropyl]oestra-1,3,5(10),16-tetraene-3-carboxamide]",7.01 and 7.34
8,"C[C@]12CC[C@@H]3c4ccc(C(=O)N[C@H]5CCC[C@@H]5O)cc4CC[C@H]3[C@@H]1CC=C2c1cncc(F)c1 [Example 11, 17-(5-fluoropyridin-3-yl)-N-[(1S,2S)-2-hydroxycyclopentyl]oestra-1,3,5(10),16-tetraene-3-carboxamide]",7.47 and 7.70
9,"C[C@]12CC[C@@H]3c4ccc(C(=O)NC5(CO)CCCC5)cc4CC[C@H]3[C@@H]1CC=C2c1cncc(F)c1 [Example 13, 17-(5-fluoropyridin-3-yl)-N-[1-(hydroxymethyl)cyclopentyl]oestra-1,3,5(10),16-tetraene-3-carboxamide]",6.97 and 7.10
10,"C[C@]12CC[C@@H]3c4ccc(C(=O)N5CCC(O)CC5)cc4CC[C@H]3[C@@H]1CC=C2c1cncc(F)c1 [Example 14, 17-(5-fluoropyridin-3-yl)oestra-1,3,5(10),16-tetraen-3-yl 4-hydroxypiperidin-1-yl ketone]",7.27 and 7.43
11,"CC[C@@H](CO)NC(=O)c1ccc2c(c1)CC[C@@H]1[C@@H]2CC[C@]2(C)C(c3cncc(F)c3)=CC[C@@H]12 [Example 15, 17-(5-fluoropyridin-3-yl)-N—[(S)-1-(hydroxymethyl)propyl]oestra-1,3,5(10),16-tetraene-3-carboxamide]",7.60
12,"CC(O)C(C)NC(=O)c1ccc2c(c1)CCC1C2CCC2(C)C(c3cncc(F)c3)=CCC12 [Example 18, rel-17-(5-fluoropyridin-3-yl)-N-[(1R,2R)-2-hydroxy-1-methylpropyl]oestra-1,3,5(10),16-tetraene-3-carboxamide]",7.35 and 7.46
13,"CC(C)N(CCO)C(=O)c1ccc2c(c1)CC[C@@H]1[C@@H]2CC[C@]2(C)C(c3cncc(F)c3)=CC[C@@H]12 [Example 19, 17-(5-fluoropyridin-3-yl)-N-(2-hydroxyethyl)-N-isopropyloestra-1,3,5(10),16-tetraene-3-carboxamide]",7.22 and 7.32
14,"C[C@]12CC[C@@H]3c4ccc(C(=O)NCCS(N)(=O)=O)cc4CC[C@H]3[C@@H]1CC=C2c1cccnc1 [Example 23, 17-(3-pyridyl)-N-(2-sulphamoylethyl)oestra-1,3,5(10),16-tetraene-3-carboxamide]",8.05
15,"C[C@]12CC[C@@H]3c4ccc(C(=O)NCCS(N)(=O)=O)cc4CC[C@H]3[C@@H]1CC=C2c1cncc(C(F)(F)F)c1 [Example 24, N-(2-sulphamoylethyl)-17-[5-(trifluoromethyl)pyridin-3-yl]oestra-1,3,5(10),16-tetraene-3-carboxamide]",7.77
16,"CNS(=O)(=O)CCNC(=O)c1ccc2c(c1)CC[C@@H]1[C@@H]2CC[C@]2(C)C(c3cncc(C(F)(F)F)c3)=CC[C@@H]12 [Example 25, N-[2-(N-methylsulphamoyl)ethyl]-17-[5-(trifluoromethyl)pyridin-3-yl]oestra-1,3,5(10),16-tetraene-3-carboxamide]",7.32
17,"C[C@]12CC[C@@H]3c4ccc(C(=O)NCCC(N)=O)cc4CC[C@H]3[C@@H]1CC=C2c1cncc(F)c1 [Example 26, N-(3-amino-3-oxopropyl)-17-(5-fluoropyridin-3-yl)oestra-1,3,5(10),16-tetraene-3-carboxamide]",8.30
18,"CNC(=O)CCNC(=O)c1ccc2c(c1)CC[C@@H]1[C@@H]2CC[C@]2(C)C(c3cncc(F)c3)=CC[C@@H]12 [Example 27, 17-(5-fluoropyridin-3-yl)-N-[3-(methylamino)-3-oxopropyl]oestra-1,3,5(10),16-tetraene-3-carboxamide]",8.30
19,"C[C@]12CC[C@@H]3c4ccc(C(=O)N5CCC[C@H]5C(N)=O)cc4CC[C@H]3[C@@H]1CC=C2c1cncc(F)c1 [Example 30, 1-{[17-(5-fluoropyridin-3-yl)oestra-1,3,5(10),16-tetraen-3-yl]carbonyl}-L-prolinamide]",7.92
20,"CC(C)(CNC(=O)c1ccc2c(c1)CC[C@@H]1[C@@H]2CC[C@]2(C)C(c3cncc(F)c3)=CC[C@@H]12)NS(C)(=O)=O [Example 31, 17-(5-fluoropyridin-3-yl)-N-{2-methyl-2-[(methylsulphonyl)amino]propyl}oestra-1,3,5(10),16-tetraene-3-carboxamide]",7.72
21,"CCN(CCO)C(=O)c1ccc2c(c1)CC[C@@H]1[C@@H]2CC[C@]2(C)C(c3cncc(F)c3)=CC[C@@H]12 [Example 32, N-ethyl-17-(5-fluoropyridin-3-yl)-N-(2-hydroxyethyl)oestra-1,3,5(10),16-tetraene-3-carboxamide]",7.96
22,"CN(CCCO)C(=O)c1ccc2c(c1)CC[C@@H]1[C@@H]2CC[C@]2(C)C(c3cncc(F)c3)=CC[C@@H]12 [Example 34, 17-(5-fluoropyridin-3-yl)-N-(3-hydroxypropyl)-N-methyloestra-1,3,5(10),16-tetraene-3-carboxamide]",8.22
23,"C[C@]12CC[C@@H]3c4ccc(C(=O)NC[C@@H](O)CO)cc4CC[C@H]3[C@@H]1CC=C2c1cncc(F)c1 [Example 36, N—[(R)-2,3-dihydroxypropyl]-17-(5-fluoropyridin-3-yl)oestra-1,3,5(10),16-tetraene-3-carboxamide]",8.22
24,"C[S+]([O-])CCNC(=O)c1ccc2c(c1)CC[C@@H]1[C@@H]2CC[C@]2(C)C(c3cncc(F)c3)=CC[C@@H]12 (some centres unmarked) [Example 37, 17-(5-fluoropyridin-3-yl)-N-[2-(methylsulphinyl)ethyl]oestra-1,3,5(10),16-tetraene-3-carboxamide]",8.30
25,"CCNC(=O)c1ccc2c(c1)CC[C@@H]1[C@@H]2CC[C@]2(C)C(c3cncc(F)c3)=CC[C@@H]12 [Example 39, N-ethyl-17-(5-fluoropyridin-3-yl)oestra-1,3,5(10),16-tetraene-3-carboxamide]",8.30
26,"COCCNC(=O)c1ccc2c(c1)CC[C@@H]1[C@@H]2CC[C@]2(C)C(c3cncc(F)c3)=CC[C@@H]12 [Example 41, 17-(5-fluoropyridin-3-yl)-N-(2-methoxyethyl)oestra-1,3,5(10),16-tetraene-3-carboxamide]",8.10
27,"CC(C)S(=O)(=O)CCNC(=O)c1ccc2c(c1)CC[C@@H]1[C@@H]2CC[C@]2(C)C(c3cncc(F)c3)=CC[C@@H]12 [Example 42, 17-(5-fluoropyridin-3-yl)-N-[2-(isopropylsulphonyl)ethyl]oestra-1,3,5(10),16-tetraene-3-carboxamide]",7.96
28,"CN(CCO)C(=O)c1ccc2c(c1)CC[C@@H]1[C@@H]2CC[C@]2(C)C(c3cncc(F)c3)=CC[C@@H]12 [Example 44, 17-(5-fluoropyridin-3-yl)-N-(2-hydroxyethyl)-N-methyloestra-1,3,5(10),16-tetraene-3-carboxamide]",7.92
29,"C[C@H](O)CNC(=O)c1ccc2c(c1)CC[C@@H]1[C@@H]2CC[C@]2(C)C(c3cncc(F)c3)=CC[C@@H]12 [Example 45, 17-(5-fluoropyridin-3-yl)-N—[(S)-2-hydroxypropyl]oestra-1,3,5(10),16-tetraene-3-carboxamide]",8.22
